Among the test systems are MOLT-4 leukemia; IGROV1 ovarian; DLD-1 colon; XF 498 CNS; DMS 273 small cell lung; SNB-78 CNS; HOP-18 NSCLC; LXFL 529 NSCLC; DMS 114 small cell lung; M19-MEL melanoma; KM20L2 colon; RXF-631 renal; P388 leukemia; SN12K1 renal; P388/ADR leukemia.
What all share (test): NCI tumour cell line growth inhibition, 48 h

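Following 48 hours of exposure in 96-well plates, responses at five concentrations were used to interpolate endpoints linearly. TGI: total growth inhibition.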 Some results are limits rather than exact numbers.

As to `CCOc1ccc(/C=C(\Cl)c2ccc(OC)c(OC)c2)cc1`, the TGI with MOLT-4 leukemia, in the assay with IGROV1 ovarian, in the assay on DLD-1 colon, with XF 498 CNS, in the assay with DMS 273 small cell lung and with SNB-78 CNS was over 100 µM throughout. The TGI was over 100 µM in the assay with HOP-18 NSCLC; over 100 µM in the assay on LXFL 529 NSCLC; over 100 µM in the assay on DMS 114 small cell lung; over 100 µM in the assay with M19-MEL melanoma; 40.1 µM in the assay with KM20L2 colon.

Regarding `COC1=C(N=[N+]=[N-])C(=O)c2ncccc2C1=O`, the TGI was 2.86 µM in the assay with MOLT-4 leukemia; 13.1 µM in the assay with IGROV1 ovarian; 3.14 µM in the assay on DLD-1 colon; 16.4 µM with XF 498 CNS; 25.7 µM with DMS 273 small cell lung; 12.7 µM with SNB-78 CNS. Besides, the TGI stood at 3.15 µM with LXFL 529 NSCLC; 19.6 µM in the assay with DMS 114 small cell lung; 3.8 µM in the assay on M19-MEL melanoma; 33 µM in the assay on KM20L2 colon; 29.9 µM with RXF-631 renal.

For `Cn1ccn2c3nc4ccccc4nc3c(=O)c(C#N)c12`, the TGI in the assay with MOLT-4 leukemia, in the assay on IGROV1 ovarian, with DLD-1 colon, in the assay on XF 498 CNS, with DMS 273 small cell lung and with SNB-78 CNS was over 100 µM throughout. In addition, the TGI in the assay with HOP-18 NSCLC, in the assay on LXFL 529 NSCLC, with DMS 114 small cell lung and in the assay with M19-MEL melanoma was over 100 µM throughout.

As to `O=C(O)CCCCCOc1cccnc1/C=N/NC1=NCCN1`, the TGI with MOLT-4 leukemia, in the assay on IGROV1 ovarian, with DLD-1 colon, with XF 498 CNS, with DMS 273 small cell lung and in the assay with SNB-78 CNS was over 100 µM each time. The TGI in the assay on HOP-18 NSCLC, with LXFL 529 NSCLC, in the assay on M19-MEL melanoma and in the assay with KM20L2 colon was over 100 µM each time.

`Cc1c2c(cc3c1[nH]c1ccccc13)C=NCC2`: the TGI in the assay with MOLT-4 leukemia was found to be 24.8 µM; in the assay on IGROV1 ovarian, 49.5 µM; with P388 leukemia it was 17.6 µM; in the assay with SN12K1 renal, 14.4 µM; in the assay on DLD-1 colon, 33.1 µM; in the assay on P388/ADR leukemia, 53.1 µM. The TGI in the assay with XF 498 CNS was 12.6 µM; in the assay on DMS 273 small cell lung, 45.8 µM; with SNB-78 CNS, 63.8 µM; in the assay with DMS 114 small cell lung, 12.9 µM; in the assay on M19-MEL melanoma, 33 µM; in the assay on KM20L2 colon it was 34.5 µM.

Regarding `CCCCCCCCCCCCCCCCSCC(COC)COP(=O)([O-])OCC[N+](C)(C)C` (centres undefined), the TGI with MOLT-4 leukemia was found to be 6.05 µM; with IGROV1 ovarian, 4.77 µM; with P388 leukemia it was 5.26 µM; in the assay on SN12K1 renal it was 24.2 µM; in the assay on DLD-1 colon, 11.2 µM; with P388/ADR leukemia, 15.2 µM. Moreover, the TGI in the assay on XF 498 CNS is 19.8 µM; in the assay on DMS 273 small cell lung it was 3.9 µM; in the assay on SNB-78 CNS, 26.1 µM; in the assay with HOP-18 NSCLC it was 16.5 µM; with DMS 114 small cell lung, 20.8 µM; in the assay with M19-MEL melanoma it was 11 µM.

As to `CCN(CC)CCCOC(=O)/C=C/c1c(C)[nH]c(=O)[nH]c1=O`, the TGI in the assay with MOLT-4 leukemia is over 625 µM; with IGROV1 ovarian it was over 625 µM; in the assay on P388 leukemia, over 625 µM; in the assay on SN12K1 renal it was over 625 µM; in the assay on DLD-1 colon, over 625 µM; with P388/ADR leukemia, over 394 µM. The TGI in the assay with XF 498 CNS, in the assay with DMS 273 small cell lung, in the assay with SNB-78 CNS, in the assay on HOP-18 NSCLC, in the assay on DMS 114 small cell lung and in the assay with M19-MEL melanoma was over 625 µM each time. In addition, the TGI with KM20L2 colon is over 625 µM.

On to `Cc1cc(O)c2c(c1O)C(=O)C13C(=C2O)C(=O)C2C(O)C1C1C(O)C3C(=O)C3=C(O)c4c(O)cc(C)c(O)c4C(=O)C321` (centres undefined), for which the TGI with MOLT-4 leukemia is 0.483 µM; with IGROV1 ovarian, 2.06 µM; in the assay with SN12K1 renal, 0.848 µM; in the assay with P388/ADR leukemia, 0.144 µM; in the assay on XF 498 CNS it was 0.504 µM; in the assay on DMS 273 small cell lung, 0.621 µM. The results for the TGI in the assay with SNB-78 CNS, in the assay with HOP-18 NSCLC and in the assay on KM20L2 colon were 0.722 µM, 1.17 µM and over 100 µM, respectively.

As for `C=C1C[C@@H](O)C[C@@]2(C)C[C@@H]3OC(=O)C(=C)[C@@H]3C[C@H]12`, the TGI with MOLT-4 leukemia was 16.1 µM; in the assay on IGROV1 ovarian, 28.8 µM; in the assay with P388 leukemia, 8.87 µM; in the assay with SN12K1 renal, 35.7 µM; with DLD-1 colon, over 36.6 µM; with P388/ADR leukemia, 31.8 µM. The TGI with XF 498 CNS is 4.71 µM; with DMS 273 small cell lung it was 20.5 µM; in the assay with SNB-78 CNS it was 37.3 µM; in the assay on HOP-18 NSCLC it was 15.9 µM; with DMS 114 small cell lung, 23.5 µM; in the assay on M19-MEL melanoma, over 100 µM. For the same compound, in the assay with KM20L2 colon, the TGI was found to be 25.4 µM.

With `CC(=O)OCC1OC(n2cc(F)c(=O)[nH]c2=O)C(N)C(OC(C)=O)C1OC(C)=O` (centres undefined), the TGI with MOLT-4 leukemia, in the assay with IGROV1 ovarian, in the assay with P388 leukemia, with SN12K1 renal, with DLD-1 colon and with P388/ADR leukemia was over 100 µM throughout. Also, the TGI with XF 498 CNS, in the assay with DMS 273 small cell lung, in the assay on SNB-78 CNS, in the assay with HOP-18 NSCLC, in the assay with DMS 114 small cell lung and in the assay on M19-MEL melanoma was over 100 µM throughout. The TGI in the assay with KM20L2 colon is over 100 µM.

For the origin of these results see PubChem BioAssay (NCI).
